According to the supplement of paper PMC11424490:

Key:
[1] = test system: NCI-H2122; test: fitted bottom plateau of viability curve, % of DMSO control; higher = less maximal inhibition; extreme values may be limits of the assay
Procedure: (§1)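 CellTiter-Glo proliferation assay in KRAS G12C mutant NCI-H2122 (72 h), SW837 (144 h) and NCI-H358 cells in 384-well plates. Monotherapy dose response was fitted with a four-parameter curve after normalisation to DMSO controls (% of control, PoC). IC50 is the relative IC50, averaged over replicates. Bottom is the fitted lower plateau in %PoC; Max.Conc. is the top dose tested.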

[2] = test system: SW837; test: as above
Procedure: as §1

| Compound | fitted bottom plateau of viability curve [1] [%] | fitted bottom plateau of viability curve [2] [%] |
| --- | --- | --- |
| CC(C)(C(=O)NCC(F)(F)C(F)(F)F)C(=O)N[C@@H]1C(=O)Nc2ccccc2-c2ccccc21 (top concentration tested 9999.9 nM) | 77.8 | 98.6 |
| NC(=O)c1ccc(-c2nc(-c3ccccn3)c(-c3ccc4c(c3)OCO4)[nH]2)cc1 (top concentration tested 9999.9 nM) | 96.2 | 96.5 |
| c1ccc(-c2nn3c(c2-c2ccnc4cc(OCCN5CCOCC5)ccc24)CCC3)nc1 (top concentration tested 9999.9 nM) | 78.1 | 90.3 |
| CN(C)CCCC(=O)Nc1n[nH]c2nnc(-c3ccccc3)cc12 (top concentration tested 10000 nM) | 76.1 | 85.9 |
| COc1ccc(Cn2ccc3ccc(C(=O)NO)cc32)cc1 (top concentration tested 10000 nM) | 67.3 | 99.9 |
| On1ncc2cc(CCc3nn[nH]n3)ccc21 (top concentration tested 10000 nM) | 73.1 | 88.1 |
| Cc1cc(Nc2nc(N[C@@H](C)c3ncc(F)cn3)ncc2Cl)[nH]n1 [AZD-1480] (top concentration tested 10000 nM) | 67 | 87.9 |
| NC(=O)Nc1cc(-c2cccc(F)c2)sc1C(=O)N[C@H]1CCCNC1 [AZD-7762] (top concentration tested 99.882 nM) | 62.8 | 89.7 |
| Cc1ncc([N+](=O)[O-])n1CCOC(=O)NC(Nc1ncccn1)C(Cl)(Cl)Cl (configuration not stated) [Apcin] (top concentration tested 10000 nM) | 83.2 | 95.3 |
| CCN1CCN(c2ccc(Nc3cc(N(C)C(=O)Nc4c(Cl)c(OC)cc(OC)c4Cl)ncn3)cc2)CC1 [BGJ398] (top concentration tested 1000 nM) | 78.2 | 90.4 |
| O=C(Cc1ccccc1)Nc1nnc(CCSCCc2nnc(NC(=O)Cc3ccccc3)s2)s1 [BPTES] (top concentration tested 10000 nM) | 56.3 | 90.2 |
| Nc1nc(Nc2ccc3c(c2)CC[C@@H](N2CCCC2)CC3)nn1-c1cc2c(nn1)-c1ccccc1CCC2 [Bemcentinib] (top concentration tested 1000.1 nM) | 70.6 | 84.4 |
| C=C(c1ccc(C(=O)O)cc1)c1cc2c(cc1C)C(C)(C)CCC2(C)C [Bexarotene] (top concentration tested 10000 nM) | 89.9 | 96.9 |
| CC(O)(CS(=O)(=O)c1ccc(F)cc1)C(=O)Nc1ccc(C#N)c(C(F)(F)F)c1 (configuration not stated) [Bicalutamide] (top concentration tested 10000 nM) | 71.7 | 77.3 |
| O=C(O)CCCCC(CCSCc1ccccc1)SCc1ccccc1 (configuration not stated) [CPI-613] (top concentration tested 10000 nM) | 93.6 | 89.5 |
| CCCCCOC(=O)Nc1nc(=O)n([C@@H]2O[C@H](C)[C@@H](O)[C@H]2O)cc1F [Capecitabin] (top concentration tested 50000 nM) | 75.7 | 101 |

| Compound | fitted bottom plateau of viability curve [1] [%] | fitted bottom plateau of viability curve [2] [%] |
| --- | --- | --- |
| C[C@H](CS)C(=O)N1CCC[C@H]1C(=O)O [Captopril] (top concentration tested 1000 nM) | 65.1 | 91.7 |
| O=C(O)C1(C(=O)O)CCC1.[NH2-].[NH2-].[Pt+2] [Carboplatin] (top concentration tested 10000 nM) | 63.4 | 88.3 |
| COc1cc2c(Oc3ccc4[nH]c(C)cc4c3F)ncnc2cc1OCCCN1CCCC1 [Cediranib] (top concentration tested 100.11 nM) | 70 | 90.6 |
| N.N.[Cl][Pt][Cl] [Cisplatin] (top concentration tested 10000 nM) | 75.2 | 88.2 |
| CC(C)(C)c1nc(-c2cccc(NS(=O)(=O)c3c(F)cccc3F)c2F)c(-c2ccnc(N)n2)s1 [Dabrafenib] (top concentration tested 1000.1 nM) | 73.8 | 93.1 |
| C[C@@H]1C[C@H]2[C@@H]3CCC4=CC(=O)C=C[C@]4(C)[C@@]3(F)[C@@H](O)C[C@]2(C)[C@@]1(O)C(=O)CO [Dexamethasone] (top concentration tested 10000 nM) | 58.2 | 82 |
| CNC(=O)c1ccc(N2C(=S)N(c3ccc(C#N)c(C(F)(F)F)c3)C(=O)C2(C)C)cc1F [Enzalutamide] (top concentration tested 10000 nM) | 83.9 | 93.1 |
| CO[C@H]1C[C@@H]2CC[C@@H](C)[C@@](O)(O2)C(=O)C(=O)N2CCCC[C@H]2C(=O)O[C@H]([C@H](C)C[C@@H]2CC[C@@H](OCCO)[C@H](OC)C2)CC(=O)[C@H](C)/C=C(\C)[C@@H](O)[C@@H](OC)C(=O)[C@H](C)C[C@H](C)/C=C/C=C/C=C/1C [Everolimus] (top concentration tested 99.976 nM) | 76.4 | 95.4 |
| Nc1nc(F)nc2c1ncn2[C@@H]1O[C@H](CO)[C@@H](O)[C@@H]1O [Fludarabine] (top concentration tested 9999.9 nM) | 71 | 59.4 |
| C[C@]12CC[C@@H]3c4ccc(O)cc4C[C@@H](CCCCCCCCC[S+]([O-])CCCC(F)(F)C(F)(F)F)[C@H]3[C@@H]1CC[C@@H]2O (some centres not stated) [Fulvestrant] (top concentration tested 1000 nM) | 75.9 | 91.1 |
| CN(C)c1ccccc1CN1CCCN(Cc2ccccc2N(C)C)C1c1ccncc1 [GANT61] (top concentration tested 10000 nM) | 70.7 | 83.1 |
| Cc1ccc(NC(=O)c2ccc(CN3CCN(C)CC3)cc2)cc1Nc1nccc(-c2cccnc2)n1 [Imatinib] (top concentration tested 1000 nM) | 71 | 95.9 |
| CN[C@@H](C)C(=O)N[C@H](C(=O)N1CCC[C@H]1c1nc(C(=O)c2ccc(F)cc2)cs1)C1CCCCC1 [LCL161] (top concentration tested 10000 nM) | 69.3 | 86.1 |
| Nc1cccc2c1CN(C1CCC(=O)NC1=O)C2=O (configuration not stated) [Lenalidomide] (top concentration tested 10000 nM) | 84.3 | 89.9 |
| O=C(O)c1nn(Cc2ccc(Cl)cc2Cl)c2ccccc12 [Lonidamine] (top concentration tested 10000 nM) | 77.4 | 86.4 |
